Test results published in paper PMC3815476 (Biochemistry, 2013).

Target: Shp (Streptococcus pyogenes, UniProt Q06A48, M66A)
Assay: biochemical

`c1c[nH]cn1` [imidazole] gave a Kd of 210 ± 11 µM.
